In ChEMBL document CHEMBL2321769, “Regioselective synthesis of 5- and 6-methoxybenzimidazole-1,3,5-triazines as inhibitors of phosphoinositide 3-kinase” (Bioorg Med Chem Lett, 2013):

Columns and labels:
[1] = biological target: Phosphatidylinositol 4,5-bisphosphate 3-kinase catalytic subunit gamma isoform (Homo sapiens, UniProt P48736); assay: Inhibition of PI3Kgamma (unknown origin) expressed in SF21 cells using phosphatidylinositol as substrate after 60 mins by Kinase-Glo assay
[2] = biological target: Phosphatidylinositol 4,5-bisphosphate 3-kinase catalytic subunit alpha isoform (Homo sapiens, UniProt P42336); assay: Inhibition of PI3Kalpha (unknown origin) expressed in SF21 cells using phosphatidylinositol as substrate after 60 mins by Kinase-Glo assay
[3] = biological target: Phosphatidylinositol 4,5-bisphosphate 3-kinase catalytic subunit beta isoform (Homo sapiens, UniProt P42338); assay: Inhibition of PI3Kbeta (unknown origin) expressed in SF21 cells using phosphatidylinositol as substrate after 60 mins by Kinase-Glo assay
[4] = biological target: T1, Phosphatidylinositol 4,5-bisphosphate 3-kinase catalytic subunit delta isoform (Homo sapiens, UniProt O00329); assay: Inhibition of PI3Kdelta (unknown origin) expressed in SF21 cells using phosphatidylinositol as substrate after 60 mins by Kinase-Glo assay
T1 sequence (O00329 whole entry): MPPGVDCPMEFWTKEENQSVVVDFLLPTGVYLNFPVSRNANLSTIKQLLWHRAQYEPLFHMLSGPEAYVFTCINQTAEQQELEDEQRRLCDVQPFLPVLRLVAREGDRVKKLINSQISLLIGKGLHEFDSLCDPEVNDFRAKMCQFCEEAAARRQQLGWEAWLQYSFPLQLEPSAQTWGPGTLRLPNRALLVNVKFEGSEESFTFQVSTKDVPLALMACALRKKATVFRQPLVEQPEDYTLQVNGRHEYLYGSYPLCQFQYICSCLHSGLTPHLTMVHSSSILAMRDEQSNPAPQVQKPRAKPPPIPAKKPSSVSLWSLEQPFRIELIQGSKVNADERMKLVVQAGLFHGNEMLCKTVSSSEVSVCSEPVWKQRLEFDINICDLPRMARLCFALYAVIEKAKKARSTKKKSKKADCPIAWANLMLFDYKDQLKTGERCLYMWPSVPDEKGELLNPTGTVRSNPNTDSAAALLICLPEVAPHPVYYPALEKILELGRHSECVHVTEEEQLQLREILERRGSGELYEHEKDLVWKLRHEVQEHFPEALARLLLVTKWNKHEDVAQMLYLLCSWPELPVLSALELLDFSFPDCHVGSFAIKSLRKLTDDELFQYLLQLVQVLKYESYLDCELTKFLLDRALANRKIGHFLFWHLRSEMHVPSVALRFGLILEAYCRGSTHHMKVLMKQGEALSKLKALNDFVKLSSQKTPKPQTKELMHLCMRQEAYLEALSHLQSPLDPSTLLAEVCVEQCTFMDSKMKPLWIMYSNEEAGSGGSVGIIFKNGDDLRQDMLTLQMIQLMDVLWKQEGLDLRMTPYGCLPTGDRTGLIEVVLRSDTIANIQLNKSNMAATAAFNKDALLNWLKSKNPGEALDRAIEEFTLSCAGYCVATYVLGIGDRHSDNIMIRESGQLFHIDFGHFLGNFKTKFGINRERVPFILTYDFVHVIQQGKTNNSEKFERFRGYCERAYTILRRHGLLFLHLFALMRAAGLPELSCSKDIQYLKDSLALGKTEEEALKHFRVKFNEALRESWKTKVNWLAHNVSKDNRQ

Sequence of Phosphatidylinositol 4,5-bisphosphate 3-kinase catalytic subunit gamma isoform (P48736 whole entry, canonical isoform): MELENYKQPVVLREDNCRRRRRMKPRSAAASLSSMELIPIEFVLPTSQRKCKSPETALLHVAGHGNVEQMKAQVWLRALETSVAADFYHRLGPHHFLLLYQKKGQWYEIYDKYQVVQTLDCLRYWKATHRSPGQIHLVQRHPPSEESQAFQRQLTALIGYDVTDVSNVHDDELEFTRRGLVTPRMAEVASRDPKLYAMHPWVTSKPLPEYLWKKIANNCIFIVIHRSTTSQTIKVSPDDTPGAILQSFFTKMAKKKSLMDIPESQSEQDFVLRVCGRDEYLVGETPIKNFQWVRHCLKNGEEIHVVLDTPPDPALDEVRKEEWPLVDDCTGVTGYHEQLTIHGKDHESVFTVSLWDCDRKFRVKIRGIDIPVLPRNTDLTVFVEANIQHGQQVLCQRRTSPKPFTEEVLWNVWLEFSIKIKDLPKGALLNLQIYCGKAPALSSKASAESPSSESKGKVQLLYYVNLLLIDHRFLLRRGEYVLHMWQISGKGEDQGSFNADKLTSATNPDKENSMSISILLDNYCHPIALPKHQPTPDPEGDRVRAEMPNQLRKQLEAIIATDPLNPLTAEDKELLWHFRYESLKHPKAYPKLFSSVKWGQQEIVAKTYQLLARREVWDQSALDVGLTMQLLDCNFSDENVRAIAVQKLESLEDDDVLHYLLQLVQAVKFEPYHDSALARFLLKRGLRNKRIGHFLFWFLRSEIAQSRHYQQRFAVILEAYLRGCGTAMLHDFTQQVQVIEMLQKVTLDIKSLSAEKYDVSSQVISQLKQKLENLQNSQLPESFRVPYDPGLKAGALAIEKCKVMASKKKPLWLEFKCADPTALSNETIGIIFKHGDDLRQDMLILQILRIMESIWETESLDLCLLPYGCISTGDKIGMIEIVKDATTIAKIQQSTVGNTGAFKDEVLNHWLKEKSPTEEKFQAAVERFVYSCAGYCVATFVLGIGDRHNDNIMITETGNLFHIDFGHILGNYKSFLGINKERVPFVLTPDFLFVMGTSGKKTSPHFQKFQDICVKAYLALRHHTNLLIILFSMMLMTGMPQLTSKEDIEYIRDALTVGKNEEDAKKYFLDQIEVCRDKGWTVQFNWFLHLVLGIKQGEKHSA
Sequence of Phosphatidylinositol 4,5-bisphosphate 3-kinase catalytic subunit beta isoform (P42338 whole entry, canonical isoform): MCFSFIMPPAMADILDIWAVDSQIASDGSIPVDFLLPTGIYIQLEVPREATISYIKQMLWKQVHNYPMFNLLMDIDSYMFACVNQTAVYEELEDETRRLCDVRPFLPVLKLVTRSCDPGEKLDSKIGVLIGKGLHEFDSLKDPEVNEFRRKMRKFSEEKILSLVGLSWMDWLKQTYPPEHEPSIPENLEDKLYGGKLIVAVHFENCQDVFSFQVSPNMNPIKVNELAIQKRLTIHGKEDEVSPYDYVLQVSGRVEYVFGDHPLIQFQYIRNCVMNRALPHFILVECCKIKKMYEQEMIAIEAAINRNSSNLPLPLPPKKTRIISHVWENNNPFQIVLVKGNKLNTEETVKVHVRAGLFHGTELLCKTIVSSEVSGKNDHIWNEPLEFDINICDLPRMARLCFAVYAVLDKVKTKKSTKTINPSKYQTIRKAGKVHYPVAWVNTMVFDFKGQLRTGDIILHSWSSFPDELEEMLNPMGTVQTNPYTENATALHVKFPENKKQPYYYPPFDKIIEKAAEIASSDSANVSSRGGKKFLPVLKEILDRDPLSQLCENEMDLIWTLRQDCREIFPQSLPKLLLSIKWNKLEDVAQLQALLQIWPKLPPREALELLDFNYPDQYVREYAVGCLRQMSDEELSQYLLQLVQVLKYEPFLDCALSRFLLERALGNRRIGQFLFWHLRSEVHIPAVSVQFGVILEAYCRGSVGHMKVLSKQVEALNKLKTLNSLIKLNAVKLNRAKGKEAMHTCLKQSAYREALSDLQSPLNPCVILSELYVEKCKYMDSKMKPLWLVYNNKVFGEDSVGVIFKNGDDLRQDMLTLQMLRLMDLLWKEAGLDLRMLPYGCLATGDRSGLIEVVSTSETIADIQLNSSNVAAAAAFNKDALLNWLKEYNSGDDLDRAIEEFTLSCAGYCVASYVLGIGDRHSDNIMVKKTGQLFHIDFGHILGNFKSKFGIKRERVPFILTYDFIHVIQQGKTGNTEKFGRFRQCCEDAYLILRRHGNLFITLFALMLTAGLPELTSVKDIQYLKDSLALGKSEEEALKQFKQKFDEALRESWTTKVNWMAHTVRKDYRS
Sequence of Phosphatidylinositol 4,5-bisphosphate 3-kinase catalytic subunit alpha isoform (P42336 whole entry, canonical isoform): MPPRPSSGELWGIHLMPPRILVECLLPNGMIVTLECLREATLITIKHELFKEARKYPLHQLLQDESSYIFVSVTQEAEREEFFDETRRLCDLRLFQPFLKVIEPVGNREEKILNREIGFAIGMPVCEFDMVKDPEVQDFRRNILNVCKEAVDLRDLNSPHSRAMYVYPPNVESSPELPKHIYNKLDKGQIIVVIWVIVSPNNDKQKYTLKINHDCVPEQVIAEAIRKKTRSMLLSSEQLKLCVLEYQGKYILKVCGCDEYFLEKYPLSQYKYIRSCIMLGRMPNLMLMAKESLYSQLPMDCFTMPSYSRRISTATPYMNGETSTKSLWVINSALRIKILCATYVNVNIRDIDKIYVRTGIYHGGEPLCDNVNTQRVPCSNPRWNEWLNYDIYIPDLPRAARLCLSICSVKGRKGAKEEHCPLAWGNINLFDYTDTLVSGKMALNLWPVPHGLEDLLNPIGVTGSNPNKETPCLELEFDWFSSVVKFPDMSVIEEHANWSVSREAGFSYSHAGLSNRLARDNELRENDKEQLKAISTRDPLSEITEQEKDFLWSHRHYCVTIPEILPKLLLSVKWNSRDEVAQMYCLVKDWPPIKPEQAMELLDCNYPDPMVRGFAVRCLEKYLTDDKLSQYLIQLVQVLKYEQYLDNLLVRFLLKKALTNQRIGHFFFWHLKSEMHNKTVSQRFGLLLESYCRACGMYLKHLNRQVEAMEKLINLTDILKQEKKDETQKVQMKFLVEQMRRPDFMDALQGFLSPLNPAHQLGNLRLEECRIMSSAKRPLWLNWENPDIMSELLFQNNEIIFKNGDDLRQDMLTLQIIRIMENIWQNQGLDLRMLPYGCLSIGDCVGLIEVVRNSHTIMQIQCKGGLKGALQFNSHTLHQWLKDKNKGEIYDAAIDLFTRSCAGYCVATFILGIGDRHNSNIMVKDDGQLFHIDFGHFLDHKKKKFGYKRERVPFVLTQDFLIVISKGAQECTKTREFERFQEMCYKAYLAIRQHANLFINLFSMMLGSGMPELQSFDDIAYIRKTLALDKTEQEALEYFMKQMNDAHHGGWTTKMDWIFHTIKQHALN

SMILES	IC50 [1]	IC50 [2]	IC50 [3]	IC50 [4]
Cc1nc2ccccc2n1-c1nc(N2CCOCC2)nc(N2CCOCC2)n1	1.86 µM	290 nM	523 nM	187 nM
COc1ccc2c(c1)nc(C(F)F)n2-c1nc(N2CCOCC2)nc(N2CCOCC2)n1	> 10 µM	> 5000 nM	> 10000 nM	> 1000 nM
COc1ccc2nc(C(F)F)n(-c3nc(N4CCOCC4)nc(N4CCOCC4)n3)c2c1	> 10 µM	375 nM	214 nM	110 nM
COc1ccc2c(c1)nc(C)n2-c1nc(N2CCOCC2)nc(N2CCOCC2)n1	> 10 µM	9200 nM	> 10000 nM	2770 nM
COc1ccc2nc(C)n(-c3nc(N4CCOCC4)nc(N4CCOCC4)n3)c2c1	> 10 µM	823 nM	1790 nM	458 nM
CC(C)c1nc2ccccc2n1-c1nc(N2CCOCC2)nc(N2CCOCC2)n1	2.53 µM	431 nM	419 nM	128 nM
COc1ccc2c(c1)nc(C(C)C)n2-c1nc(N2CCOCC2)nc(N2CCOCC2)n1	> 10 µM	> 10000 nM	> 10000 nM	1120 nM
COc1ccc2nc(C(C)C)n(-c3nc(N4CCOCC4)nc(N4CCOCC4)n3)c2c1	> 10 µM	1050 nM	726 nM	423 nM
